The source of these data is patent US10201558B2, “Compositions of selenoorganic compounds and methods of use thereof” (Alltech, Inc., priority 2014, dated 2019).

For test [1], the system named is G6PC. Put plainly: Western blot of G6PC protein in IMR-32 cells. Format: cell-based, human. As to conditions: 150 ppb, 24 hours. As for the experimental part: IMR-32 cells were seeded on 6-well plates and then treated with control and various compounds for 6 hours and 24 hours, as described above. After treatments, cells were rinsed with ice-cold PBS and lysed in ice-cold RIPA buffer containing complete proteinase and phosphatase inhibitors (Thermo-Fisher Scientific, Waltham, Mass.) on ice for 30 min Cell lysates were collected using a cell scraper and transfer pipette and then centrifuged at 12000×g for 30 min at 4° C. to remove the DNA pellet and obtain the protein extract. Protein levels in the supernatant of these cell lysates were determined using the Pierce Micro-BCA protein assay kit (Thermo Scientific-Piece Biotechnology, Rockford, Ill.) according to the manufacturer's protocol […]
Positive signals on the membrane blots were detected using Amersham's enhanced chemiluminescence (ECL) Western Blotting Prime Detection reagents (GE healthcare Lifescience, Pittsburgh, Pa.). Images of these luminescence signals on the membrane blots were captured using the LI-COR Odyssey Fc Image system (Lincoln, Nebr.). […] Protein band densities in the Western blots were determined using the Li—COR Image studio software or NIH ImageJ software, and then normalized by ACTB protein level in each sample. […]
(In general: A western blot detects proteins with antibodies after separation by electrophoresis.)

The test system of test [2] is MAPK12. Put plainly: QRT-PCR of MAPK12 mRNA in control and FOXO4 KD IMR-32 cells. The format is cell-based, human. To be noted: 24 hours. As for the experimental part: IMR-32 cells were cultured on 12-well plates for 24 hours and then incubated with FOXO4 siRNA lentiviruses (SC-29650V, Santa Cruz) or control siRNA lentiviruses (sc-108080, Santa Cruz) in the presence of Polybrene (5 μg/ml, Santa Cruz) for 24 hours according to the manufacturer's protocol. These lentiviral siRNA-transfected cells were amplified in normal media for 3 days and then incubated with puromycin for 9-14 days to obtain the stable Control KD (stably transfected with the control siRNAs) and FOXO4KD (stably transfected with Foxo4 siRNAs) cells. These control and Foxo4 KD cells were subjected to cell survival, mitochondrial potential and RNA analysis.
Human IMR-32 cells were seeded on gelatinized 6-well (6.5×10^5 cells/well) or 24-well (1.3×10^5 cells/well) plates. Cells were treated with control (0 ppb) or various compounds for 6 hours or 24 hours. Total RNA from these cells was isolated using Trizol (Invitrogen) according to the manufacturer's protocol, and then incubated with DNase I to remove any potential contaminated genomic DNA. Then RNA samples were subjected to real-time PCR analysis using the Applied-Bioscience's RT kit and predesigned Taqman probes (Invitrogen), as described previously (Lan et al EMBO J 2003). The mRNA levels of UCP1, UCP2, UCP3, SLC25A27 (UCP4), SLC25A14 (UCP5), PSEN1, Nicastrin, GSK3B, MAPK11-14, PPARG, APOE, RCAN1, RCAN1.1, G6PC, INSR, IGF1R and FOXO4 were measured. Three to six samples were analyzed in each treatment group. Data were normalized by Actin B (ACTB) or Glyceraldehyde Phosphate Dehydrogenase (GAPDH) mRNA levels in each sample and are presented as mean±SEM of 3-6 samples.
Normal control cells and FOXO4KD cells were incubated with two doses of Compound C for 24 hours, and subjected to QRT-PCR analysis of the MAPK11-14 genes. The relative mRNA expression of all four MAPK genes in normal control IMR-32 cells was assessed. […] Data in Compound C-treated control and FOXO4 KD cells were normalized by their levels in control and FOXO4KD cells, respectively. Mean±SEM of indicated number of samples in the bar graphs. […]

For test [3], the system named is Neprilysin. Put plainly: Western blot of Neprilysin in APP/PS1 mouse brains. The format is in vivo. As to conditions: APP/PS1 mice, Compound C diet vs control diet. The procedure: Male APPΔNLh/ΔNLh×PS1P246 L/246 L knock-in model mice of Alzheimer's disease (abbreviated APP/PS1) were genotyped using standard primers for human APP (Amyloid Precursor Protein) and human PS1 (PSEN1). These APP/PS1 mice starting at the age of 6 months, were fed either a control diet containing normal levels of selenium (0.3 ppm from plant and inorganic selenium salt sources) or an experimental diet containing Compound C (the control diet to which was added 1 ppm Se from Compound C) for 6 months. […]
Frozen hemispheres of control- and Compound C-treated APP/PS1 mice were weighed and homogenized in PBS buffer, and then subsequently extracted with RIPA buffer (Sigma) containing complete proteinase and phosphatase inhibitors (Fisher Scientific). Protein levels in the samples were determined by micro-BCA protein analysis according to the manufacturer's protocol. […] Positive signals on the membrane blots were detected using Amersham's enhanced chemiluminescence Western Blotting Prime Detection reagents (GE healthcare Lifescience, Pittsburgh, Pa.). Images of these luminescence signals on the membrane blots were captured using the LI-COR Odyssey Fc Image system (Lincoln, Nebr.). Protein band densities in Western blots were determined using NIH Image J software, and then normalized by Actb levels in each samples to obtain the protein levels.

The structures appear in SMILES notation. “Also recorded” adds a separate entry of the source.

In the case of `C[Se]C[C@H]1O[C@@H](n2cnc3c(N)ncnc32)C(O)C1O` (stereo in doubt) [Compound C, 5′-deoxy-5′-methylselenoadenosine], the G6Pc protein levels entry in test [1] was “visibly increased”. In addition, the “increase of G6Pc protein expression levels” value in test [1] (quantitative analysis) is around 3 fold. Besides, the “MAPK12 mRNA levels” value in test [2] (FOXO4KD cells, 75 ppb and 150 ppb) is “none of the mRNA levels of the four MAPK genes in FOXO4KD cells were significantly altered”; in test [2] (control KD cells, 75 ppb) it was “significant decrease”; in test [2] (control KD cells, 150 ppb), “significantly decreased”. Moreover, in test [3], the “Neprilysin protein levels in the brains” value is “increased; also recorded: elevated”.
